Results on three substances are retold here after patent publication US20260193668A1, “NOVEL PEPTIDES AND USE THEREOF FOR MODULATING PROTEIN ACCUMULATION” (UNIVERSITE TOULOUSE III - PAUL SABATIER, priority 2022, published 2026).

The test system of assay [1] is Botrytis cinerea. Put plainly: S. lycopersicum leaves infected with B. cinerea. The assay is classed as in vivo. Particulars: tomato. The source says:
(§1) (a, b) Relative area of lesions on S. lycopersicum leaves infected with B. cinerea and treated with an irrelevant peptide or cPEPjar1. (c, d) Heat stress resistance of soybean plants treated with an irrelevant peptide or cPEPsp101. (e, f) Growth (plant height) of soybean plants treated with an irrelevant peptide or a mixture of cPEPs (targeting MRB1, SHY2 and SGR1). (g, h) Leaf area of B. vulgaris plants treated with an irrelevant peptide or a mixture of cPEPs (targeting EIN2, BR11, BAK1 and WUS). (i, j) Leaf surface of A. hypochondriacus plants treated with an irrelevant peptide or a mixture of cPEPs (targeting EIN2, BR11, BAK1 and WUS).
Wild-type or mutant A. thaliana leaves were sprayed daily with 100 μM of peptide or 100 μM of the corresponding scramble version for 3 days. Six hours after the last treatment, five mature leaves per plant were inoculated with a 5 μL droplet of 2.5×10^5 spores/mL of Botrytis cinerea strain B05.10 diluted in 100 μM of peptide or its corresponding scramble version. After inoculation, plants were maintained at 100% relative humidity. Then, a 2 μL droplet of 100 μM of peptide or 100 μM of the corresponding scramble version was deposited daily on B. cinerea-infected leaves for 3 days (until symptoms appeared). Leaves were removed from the plants to determine lesion areas using the ImageJ programme. […]

Assay [2] concerns luciferase. Briefly: Luciferase activity in A. thaliana constitutively expressing the LUC transgene. The assay is classed as in vivo, Arabidopsis thaliana. The source says:
(§2) Analysis of luciferase expression in A. thaliana constitutively expressing the LUC transgene. (a) Agarose gel after PCR amplification of RNA obtained by immunoprecipitation using anti-HA magnetic beads, followed by RT-PCR, on plants treated with the indicated peptide (SC-HA: Scrambled cPEPluc-HA; Luc-HA: cPEPluc-HA). (b) Relative expression of the luciferase transgene in plants treated with the indicated peptide, quantified by RT-qPCR. (c-e) Relative quantification of LUC in plants treated with the indicated peptide. (f, g) Ratio between induction and quantification of LUC in plants treated with cPEPluc compared to plants treated with Scrambled cPEPluc, using different peptide concentrations (f) or taken at different time points (g). (h) Transcriptomic analysis of plants treated with cPEPluc-HA compared to plants treated with Scrambled cPEPluc-HA. (i) Proteomic analysis of plants treated with cPEPluc-HA compared to plants treated with Scrambled cPEPluc-HA. Protein expression was analysed by Western blots and quantified using ImageJ.
Medicago truncatula Gaertn cv. Jemalong genotype A17 were grown on Long Aston medium as described in Delaux P M et al (New Phytol. 2013 July; 199(1):59-65). Arabidopsis thaliana Col-0 plants were grown in soil until 4 weeks of age in a growth chamber (22/20° C., 16 h/8 h L/D, RH 80%, ~75 μmol·m^−2 s^−1). Barbarea vulgaris seeds were stratified for 24 h at 4° C. before being grown in pots in a growth chamber. Seeds of Amaranthus hypochondriacus, Glycine max and Solanum lycopersicum were sown in pots and grown in a growth chamber. […]
N. benthamiana plants were treated by spraying the leaves 24 h before harvesting. […] 5 μL of luciferin was added and luciferase activity was read 30 min later using a spectrophotometer. […] To quantify the protein level induced by cPEPs in Arabidopsis, rosettes were sprayed daily with 100 μM of peptide or its control for 5 days. […] Chlorophyll content was measured using the SPAD chlorophylometer (Konica Minolta). Leaf area was measured using ImageJ software. […]

In assay [3] the test system is luciferase. Put plainly: Luciferase activity in A. thaliana LUC plants with or without cycloheximide. It counts as in vivo, Arabidopsis thaliana. The following applies: cycloheximide 200 μg·mL^−1, 24 h. As for the experimental part:
(§3) (a) Analysis of luciferase activity in A. thaliana plants constitutively expressing the LUC transgene and treated with Scrambled cPEPluc or cPEPluc, with or without cycloheximide. (b) Analysis of luciferase activity after in vitro transcription/translation of luciferase expressed with cPEPluc or Scrambled cPEPluc.
Arabidopsis thaliana plants comprising the LUC construct were treated by infiltrating the leaves with a solution of peptide with or without cycloheximide (200 μg·mL^−1) in MS/2 medium, 24 h before harvesting for the LUC assay.

The test system of assay [4] is luciferase. Put plainly: In vitro transcription/translation of luciferase (wheat germ system). Particulars: 60 min. It counts as biochemical.
Source text: as §3
The TnT® SP6 high-throughput wheat germ protein expression system (Promega) was used according to the manufacturer's instructions. The LUC sequence was amplified using the GoTaq Polymerase® (Promega), cPEPs or their corresponding Scramble versions were added just prior to the start of the reaction. The reaction was stopped after 60 min, after which LUC activity was measured using a plate spectrophotometer (Perkin-Elmer Victor Nivo).

The subject of assay [5] is luciferase mRNA. Briefly: Relative expression of the luciferase transgene by RT-qPCR. The assay is classed as in vivo, Arabidopsis thaliana. Particulars: A. thaliana expressing LUC treated with synthetic peptide.
Source text: as §2
Quantification of mRNAs was performed by qRT-PCR using appropriate primer pairs selected from the sequences: SEQ ID NOs: 367 to 374. Expression levels for the controls were set at 100. The primers used for the A. euteiches assays are described in Camborde et al (New Phytol. 233:2232-2248. 2022).
In general terms: Real-time PCR tracks product formation cycle by cycle.

Assay [6] deals with soybean plants. Put plainly: Heat stress resistance of soybean plants. The assay is classed as in vivo, Glycine max. The following applies: 45° C. for 24 h.
Source text: as §1
N. benthamiana plants were treated by spraying the leaves 24 h before harvesting. For Luc assays, 100 μL of MS/2 liquid medium containing the peptides was added to each well. 5 μL of luciferin was added and luciferase activity was read 30 min later using a spectrophotometer. All other assays were performed by spraying or watering the plants. To quantify the protein level induced by cPEPs in Arabidopsis, rosettes were sprayed daily with 100 μM of peptide or its control for 5 days. Leaves were harvested 6 h after the last treatment for western blot analysis. […] Chlorophyll content was measured using the SPAD chlorophylometer (Konica Minolta). Leaf area was measured using ImageJ software. […]

Where [7] appears, read: 96-well assay, cPEPluc compared to Scrambled cPEPluc.

In the case of “cPEPjar1: cPEP targeting the tomato JAR1 protein (AFRTFEQVWE; cPEpjar1)”, in assay [1], the “plant's resistance to B. cinerea” value was “improved”.

In the case of “cPEPluc: complementary peptide of 10 amino acids corresponding to a 10 amino acid fragment of the luciferase protein (KRYGLNTNHR; cPEPluc)”, in assay [2] (setting [7]), the “optimum concentration of cPEP for luciferase induction” value was found to be 50 µM and the “treatment time showing the maximum effect of cPEP” value was found to be 24 h. In assay [2] (A. thaliana LUC seedlings, exogenous peptide treatment, compared with water or non-luciferase-specific peptides), the luciferase activity result is “increased”. Moreover, the “effect of cPEPluc on luciferase activity in the presence of CHX” value in assay [3] is “inhibited”. Further, the “LUC activity in vitro” value in assay [4] is on record as “increased”. For the same substance, the “luciferase mRNA abundance (qPCR)” value in assay [5] is reported as “no effect”.

As to “cPEPhsp101 (EEYRKYVEKD; cPEPhsp101) [SEQ ID NO: 408, cPEP targeting the homolog of HSP101 in soybean]”, the “tolerance to heat stress” value in assay [6] is listed as “increased”.
